Data published in patent US20220259212A1, “INHIBITORS OF INDOLEAMINE 2,3-DIOXYGENASE AND/OR TRYPTOPHAN 2,3-DIOXYGENASE” (Idorsia Pharmaceuticals Ltd, priority 2019, published 2022).

How the values were obtained:
[1] = target: T1, IDO1 in SKOV3 cells (Homo sapiens, UniProt P14902); test: Cell-based IDO inhibitory activity in IFNγ-stimulated SKOV3 cells (NFK + kynurenine by LCMS); settings: IFNγ 50 ng/ml, 200 uM L-tryptophan, 24 hours
T1 construct: SKOV3 cells (NCI, No. 0503405) which upregulate IDO1 after stimulation with IFNγ; host or cells: SKOV3 cells stimulated with IFNγ
Method in brief: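 SKOV3 cells (4000/well, pre-cultured 24 h) were treated with compound (10 uM-40 nM) plus 200 uM L-tryptophan and 50 ng/ml IFNγ for 24 h at 37° C. N-formylkynurenine plus kynurenine in supernatant was measured by LCMS against a d5-tryptophan internal standard. IC50 was fitted against 0.2% DMSO and reference-inhibitor controls, in duplicate, with repeat measurements averaged.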

[2] = target: T2, Recombinant full-length human IDO1 (Homo sapiens, UniProt P14902); test: IDO1 enzymatic assay (NFK quantified by LCMS); type: biochemical; settings: 2 nM enzyme, 5 μM L-tryptophan, 30 min pre-incubation, pH6.5; mean if measured multiple times; read-out: hIDO activity (IC50 in nM)
T2 construct: Recombinant full-length human IDO1 with a N-terminal hexahistidine tag; hexahistidine (N); made in house; host or cells: E. coli
Method in brief: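 His-tagged full-length IDO1 (E. coli, 2 nM final) in pH 6.5 phosphate with ascorbate, methylene blue and catalase was preincubated 30 min at RT with compound (10 µM–0.5 nM, 0.6% DMSO), then run 30 min at RT with 5 µM L-Trp. NFK was measured by LCMS against a d5-Trp standard. IC50 came from a four-parameter fit of duplicates.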

[3] = target: T3, Recombinant human TDO comprising amino acids 19-407 (Homo sapiens, UniProt P48775); test: TDO2 enzymatic assay (NFK quantified by LCMS); type: biochemical; settings: 15 nM enzyme, 200 μM L-tryptophan, 30 min pre-incubation, pH7; mean if measured multiple times; read-out: hTDO activity (IC50 in nM)
T3 construct: human TDO comprising amino acids 19-407; hexahistidine (N); made in house; host or cells: E. coli
Method in brief: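 E. coli-expressed N-terminal His-tagged TDO (15 nM) in pH 7 phosphate buffer with ascorbate and catalase, preincubated 30 min at RT with compound (10 μM to 0.5 nM, 0.6% DMSO). Reaction started with 200 μM L-tryptophan for 30 min at RT; NFK measured by LCMS against deuterated internal standard, IC50 by four-parameter fit, duplicates.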

T3 sequence (P48775 19-406 limits assumed): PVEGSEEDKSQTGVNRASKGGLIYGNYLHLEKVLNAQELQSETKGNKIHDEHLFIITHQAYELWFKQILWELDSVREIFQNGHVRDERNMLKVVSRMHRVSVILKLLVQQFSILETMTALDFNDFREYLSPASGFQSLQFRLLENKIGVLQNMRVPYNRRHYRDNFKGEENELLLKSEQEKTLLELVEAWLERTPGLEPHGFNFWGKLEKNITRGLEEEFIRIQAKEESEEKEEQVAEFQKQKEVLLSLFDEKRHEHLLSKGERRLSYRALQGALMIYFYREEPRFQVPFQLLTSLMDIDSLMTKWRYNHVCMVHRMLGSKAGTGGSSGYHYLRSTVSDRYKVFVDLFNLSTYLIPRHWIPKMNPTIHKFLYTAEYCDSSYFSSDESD
T1 sequence (P14902 whole entry): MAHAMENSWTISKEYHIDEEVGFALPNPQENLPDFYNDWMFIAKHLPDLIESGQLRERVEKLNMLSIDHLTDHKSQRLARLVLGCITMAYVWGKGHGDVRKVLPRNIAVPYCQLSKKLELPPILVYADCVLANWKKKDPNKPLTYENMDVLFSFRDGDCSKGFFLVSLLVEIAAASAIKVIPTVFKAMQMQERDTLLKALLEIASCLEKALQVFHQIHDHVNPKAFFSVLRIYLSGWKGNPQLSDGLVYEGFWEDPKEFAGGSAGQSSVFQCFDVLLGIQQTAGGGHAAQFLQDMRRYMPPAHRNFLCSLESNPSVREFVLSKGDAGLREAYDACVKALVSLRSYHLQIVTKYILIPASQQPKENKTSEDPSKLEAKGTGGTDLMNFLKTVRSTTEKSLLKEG
T2 sequence (P14902 whole entry): as above

## OC(c1cn(-c2ccc(OCC3(F)COC3)cc2)nn1)c1c(C2CC2)ccc2cncn12 (racemic) [Example 19, rac-(6-Cyclopropyl-imidazo[1,5-a]pyridin-5-yl)-{1-[4-(3-fluoro-oxetan-3-ylmethoxy)-phenyl]-1H-[1,2,3]triazol-4-yl}-methanol]
[1]
  IC50: 11.6 nM
[2]
  IC50: 13.7 nM
[3]
  IC50: > 10200 nM

## COc1ccc(-n2cc([C@H](O)c3c(C4CC4)ncc4cncn34)nn2)cc1Cl [Example 11a, (R)-[1-(3-Chloro-4-methoxy-phenyl)-1H-[1,2,3]triazol-4-yl]-(6-cyclopropyl-imidazo[1,5-a]pyrazin-5-yl)-methanol]
[1]
  IC50: 23.7 nM
[2]
  IC50: 8.17 nM
[3]
  IC50: > 10200 nM

## O[C@@H](c1cn(-c2ccc(OCC3COC3)c(F)c2)nn1)c1c(C2CC2)ncc2cncn12 [Example 36, (R)-(6-Cyclopropyl-imidazo[1,5-a]pyrazin-5-yl)-{1-[3-fluoro-4-(oxetan-3-ylmethoxy)-phenyl]-1H-[1,2,3]triazol-4-yl}-methanol]
[1]
  IC50: 16.8 nM
[2]
  IC50: 8.33 nM
[3]
  IC50: > 10200 nM

## CCc1c(C(O)c2c(Cl)ccc3cncn23)nnn1-c1ccc(OC)cc1 (racemic) [Example 37, rac-(6-Chloro-imidazo[1,5-a]pyridin-5-yl)-[5-ethyl-1-(4-methoxy-phenyl)-1H-[1,2,3]triazol-4-yl]-methanol]
[1]
  IC50: 39 nM
[2]
  IC50: 5.28 nM
[3]
  IC50: 6640 nM

## COc1cc(F)c(-n2cc([C@H](O)c3c(C4CC4)ncc4cncn34)nn2)cc1F [Example 22, (R)-(6-Cyclopropyl-imidazo[1,5-a]pyrazin-5-yl)-[1-(2,5-difluoro-4-methoxy-phenyl)-1H-[1,2,3]triazol-4-yl]-methanol]
[1]
  IC50: 20.2 nM
[2]
  IC50: 6.36 nM
[3]
  IC50: > 10200 nM

## CCc1ccc2cncn2c1[C@@H](O)c1cn(-c2cc(F)c(OC)cc2F)nn1 [Example 35a, (R)-[1-(2,5-Difluoro-4-methoxy-phenyl)-1H-[1,2,3]triazol-4-yl]-(6-ethyl-imidazo[1,5-a]pyridin-5-yl)-methanol]
[1]
  IC50: 0.95 nM
[2]
  IC50: 2.39 nM
[3]
  IC50: > 10200 nM

## CNc1ccc(-n2cc([C@H](O)c3c(C4CC4)ncc4cncn34)nn2)cc1 [Example 42, (R)-(6-Cyclopropyl-imidazo[1,5-a]pyrazin-5-yl)-[1-(4-methylamino-phenyl)-1H-[1,2,3]triazol-4-yl]-methanol]
[1]
  IC50: 199 nM
[2]
  IC50: 13.5 nM
[3]
  IC50: > 10200 nM

## CCc1ccc2cncn2c1C(O)c1cn(-c2cc(F)c(OC)cc2F)nn1 (racemic) [Example 35, rac-[1-(2,5-Difluoro-4-methoxy-phenyl)-1H-[1,2,3]triazol-4-yl]-(6-ethyl-imidazo[1,5-a]pyridin-5-yl)-methanol]
[1]
  IC50: 3.05 nM
[2]
  IC50: 3.39 nM
[3]
  IC50: > 10200 nM

## OC(c1cn(-c2ccc(OCC3(F)COC3)cc2)nn1)c1c(C2CC2)ncc2cncn12 (racemic) [Example 16, rac-(6-Cyclopropyl-imidazo[1,5-a]pyrazin-5-yl)-{1-[4-(3-fluoro-oxetan-3-ylmethoxy)-phenyl]-1H-[1,2,3]triazol-4-yl}-methanol]
[1]
  IC50: 94.6 nM
[2]
  IC50: 33.2 nM
[3]
  IC50: > 10200 nM

## CC(C)(O)COc1ccc(-n2cc([C@H](O)c3c(C4CC4)ncc4cncn34)nn2)cc1F [Example 29, 1-(4-{4-[(R)-(6-Cyclopropyl-imidazo[1,5-a]pyrazin-5-yl)-hydroxy-methyl]-[1,2,3]triazol-1-yl}-2-fluoro-phenoxy)-2-methyl-propan-2-ol]
[1]
  IC50: 29.9 nM
[2]
  IC50: 7.74 nM
[3]
  IC50: > 10200 nM

## CN1CCc2cc(-n3cc([C@H](O)c4c(C5CC5)ncc5cncn45)nn3)ccc21 [Example 47, (R)-(6-Cyclopropyl-imidazo[1,5-a]pyrazin-5-yl)-[1-(1-methyl-2,3-dihydro-1H-indol-5-yl)-1H-[1,2,3]triazol-4-yl]-methanol]
[1]
  IC50: 145 nM
[2]
  IC50: 7.76 nM
[3]
  IC50: > 10200 nM

## O[C@@H](c1cn(-c2ccc(N3CC4(COC4)C3)cc2)nn1)c1c(C2CC2)ncc2cncn12 [Example 45, (R)-(6-Cyclopropyl-imidazo[1,5-a]pyrazin-5-yl)-{1-[4-(2-oxa-6-aza-spiro[3.3]hept-6-yl)-phenyl]-1H-[1,2,3]triazol-4-yl}-methanol]
[1]
  IC50: 56.8 nM
[2]
  IC50: 15 nM
[3]
  IC50: > 10200 nM

## Cc1c(C(O)c2c(Cl)ccc3cncn23)nnn1-c1ccc(O)c(F)c1 (racemic) [Example 48, rac-4-{4-[(6-Chloro-imidazo[1,5-a]pyridin-5-yl)-hydroxy-methyl]-5-methyl-[1,2,3]triazol-1-yl}-2-fluoro-phenol]
[1]
  IC50: 29 nM
[2]
  IC50: 2.29 nM
[3]
  IC50: 1460 nM

## COC(=O)Nc1ccc(-n2cc(C(O)c3c(C4CC4)ncc4cncn34)nn2)cc1 (racemic) [Example 12, rac-(4-{4-[(6-Cyclopropyl-imidazo[1,5-a]pyrazin-5-yl)-hydroxy-methyl]-[1,2,3]triazol-1-yl}-phenyl)-carbamic acid methyl ester]
[1]
  IC50: 73.9 nM
[2]
  IC50: 21.5 nM
[3]
  IC50: > 10200 nM

## Cc1ccc(-n2cc(C(O)c3c(C4CC4)ccc4cncn34)nn2)cc1 (racemic) [Example 5, rac-(6-Cyclopropyl-imidazo[1,5-a]pyridin-5-yl)-(1-p-tolyl-1H-[1,2,3]triazol-4-yl)-methanol]
[1]
  IC50: 53.7 nM
[2]
  IC50: 4.83 nM
[3]
  IC50: > 10200 nM

## Nc1ccc(-n2cc([C@H](O)c3c(C4CC4)ncc4cncn34)nn2)cc1 [Example 41, (R)-[1-(4-Amino-phenyl)-1H-[1,2,3]triazol-4-yl]-(6-cyclopropyl-imidazo[1,5-a]pyrazin-5-yl)-methanol]
[1]
  IC50: 212 nM
[2]
  IC50: 17.5 nM
[3]
  IC50: > 10200 nM

## COc1cc(F)c(-n2nnc(C(O)c3c(Cl)ccc4cncn34)c2C)cc1Cl (racemic) [Example 39, rac-[1-(5-Chloro-2-fluoro-4-methoxy-phenyl)-5-methyl-1H-[1,2,3]triazol-4-yl]-(6-chloro-imidazo[1,5-a]pyridin-5-yl)-methanol]
[1]
  IC50: 6.94 nM
[2]
  IC50: 5.26 nM
[3]
  IC50: 7940 nM

## CCOc1ccc(-n2cc(C(O)c3c(C4CC4)ccc4cncn34)nn2)cn1 (racemic) [Example 9, rac-(6-Cyclopropyl-imidazo[1,5-a]pyridin-5-yl)-[1-(6-ethoxy-pyridin-3-yl)-1H-[1,2,3]triazol-4-yl]-methanol]
[1]
  IC50: 31.2 nM
[2]
  IC50: 5.43 nM
[3]
  IC50: > 10200 nM

## OC(c1cn(-c2ccccc2)nn1)c1c(Cl)ccc2cncn12 (racemic) [Example 1, rac-(6-Chloro-imidazo[1,5-a]pyridin-5-yl)-(1-phenyl-1H-[1,2,3]triazol-4-yl)-methanol]
[1]
  IC50: 246 nM
[2]
  IC50: 9.6 nM
[3]
  IC50: > 10200 nM

## COC(=O)Nc1ccc(-n2cc(C(O)c3c(C4CC4)ccc4cncn34)nn2)cc1 (racemic) [Example 6, rac-(4-{4-[(6-Cyclopropyl-imidazo[1,5-a]pyridin-5-yl)-hydroxy-methyl]-[1,2,3]triazol-1-yl}-phenylycarbamic acid methyl ester]
[1]
  IC50: 11.8 nM
[2]
  IC50: 9.14 nM
[3]
  IC50: > 10200 nM

## COc1ccc(-n2cc(C(O)c3c(C4CC4)ccc4cncn34)nn2)cc1 (racemic) [Example 4, rac-(6-Cyclopropyl-imidazo[1,5-a]pyridin-5-yl)-[1-(4-methoxy-phenyl)-1H-[1,2,3]triazol-4-yl]-methanol]
[1]
  IC50: 42.2 nM
[2]
  IC50: 3.7 nM
[3]
  IC50: > 10200 nM

## O[C@@H](c1cn(-c2ccccc2)nn1)c1c(Cl)ccc2cncn12 [Example 1a, (R)-(6-Chloro-imidazo[1,5-a]pyridin-5-yl)-(1-phenyl-1H-[1,2,3]triazol-4-yl)-methanol]
[1]
  IC50: 193 nM
[2]
  IC50: 5.07 nM
[3]
  IC50: 9110 nM

## COc1ccc(-n2cc([C@H](O)c3c(C4CC4)ncc4cncn34)nn2)cc1F [Example 21, (R)-(6-Cyclopropyl-imidazo[1,5-a]pyrazin-5-yl)-[1-(3-fluoro-4-methoxy-phenyl)-1H-[1,2,3]triazol-4-yl]-methanol]
[1]
  IC50: 33.2 nM
[2]
  IC50: 8.24 nM
[3]
  IC50: > 10200 nM

## Oc1ccc(-n2cc(C(O)c3c(C4CC4)ncc4cncn34)nn2)cc1 (racemic) [Example 15, rac-4-{4-[(6-Cyclopropyl-imidazo[1,5-a]pyrazin-5-yl)-hydroxy-methyl]-[1,2,3]triazol-1-yl}-phenol]
[1]
  IC50: 208 nM
[2]
  IC50: 13.1 nM
[3]
  IC50: 9610 nM

## OC(c1cnn(-c2ccccc2)n1)c1c(Cl)ccc2cncn12 (racemic) [Ref3, rac-(6-Chloro-imidazo[1,5-a]pyridin-5-yl)-(2-phenyl-2H-[1,2,3]triazol-4-yl)-methanol, reference compound]
[1]
  IC50: > 10000 nM
[2]
  IC50: 161 nM
[3]
  IC50: 8920 nM
